Experimental findings from ChEMBL document CHEMBL1201862, “PubChem BioAssay data set” (2004) are described below.

Among the test systems are U-251; HOP-92; SW-620; SNB-19; OVCAR-3; MDA-MB-231; Malme-3M; CAKI-1; HCT-15; DU-145; CCRF-CEM; NCI-H522; SNB-75; LOX IMVI; HOP-62; SF-539; NCI/ADR-RES; SK-OV-3; DMS-114; LXFL 529.
Common to all, as to experiment: DTP human tumour cell line panel, 48 h

One may read the GI50 as the concentration at which growth is held to half of that of the control.

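Results reflect a 48-hour exposure of cells in 96-well plates to compound at five concentrations. At the GI50, growth is halved.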 Active and inactive are the calls of the source. No stated cut-off is given here; in the data, active = GI50 up to about 1.1 µM and inactive = higher. Where only a bound is given, the exact number is not on record here.

Turning to `Nc1nc(N)c2nc(CNc3ccc(C(=O)O)cc3)[nH]c2n1`, the GI50 with U-251, in the test on HOP-92, in the test on SW-620, with SNB-19, in the test with OVCAR-3 and in the test on MDA-MB-231 was > 100 µM (inactive) throughout. In addition, the GI50 with Malme-3M is > 100 µM (inactive); in the test with CAKI-1, > 100 µM (inactive); in the test on HCT-15, over 100 µM; with DU-145, > 100 µM (inactive); with CCRF-CEM, > 100 µM (inactive); with NCI-H522, > 100 µM (inactive). The GI50 with SNB-75, in the test with LOX IMVI, in the test with HOP-62, with SF-539, in the test with NCI/ADR-RES and with SK-OV-3 was > 100 µM (inactive) throughout.
In the case of `COc1cc(C2C3=C(COC3=O)OC(C)(C)Oc3cc4c(cc32)OCO4)cc(OC)c1OC` (centres undefined), the GI50 in the test with U-251 is 0.447 µM (active); in the test on HOP-92, 3.58 µM (inactive); with SW-620 it was 0.348 µM (active); in the test on SNB-19, 0.245 µM (active); in the test with OVCAR-3, 0.447 µM (active); in the test on MDA-MB-231 it was 0.358 µM (active). Besides, the GI50 with Malme-3M was > 37.8 µM (inactive); with CAKI-1, 2.27 µM (inactive); in the test with HCT-15, 0.372 µM; in the test on DU-145 it was 0.34 µM (active); with CCRF-CEM it was 0.395 µM (active); with NCI-H522 it was 0.278 µM (active). The GI50 in the test on SNB-75 is 0.253 µM (active); in the test on LOX IMVI, 0.331 µM (active); in the test on HOP-62, 0.509 µM (active); in the test on SF-539, 0.212 µM (active); in the test on NCI/ADR-RES, 0.299 µM (active); in the test on SK-OV-3, 0.476 µM (active).
`N#Cc1c2c(c(Cl)n3c1nc1ccccc13)CCCC2`: the GI50 in the test on U-251 is 3.65 µM (inactive); in the test with SW-620, 1.96 µM (inactive); in the test on SNB-19, 4.69 µM (inactive); with OVCAR-3 it was 6.5 µM (inactive); with Malme-3M, 13.2 µM (inactive); with CAKI-1, 2.76 µM (inactive). For the same compound, the GI50 is 3.21 µM with HCT-15; 17.2 µM (inactive) in the test with SNB-75; 1.86 µM (inactive) in the test on DMS-114; 1.9 µM (inactive) in the test on LOX IMVI; > 10 µM (inactive) with HOP-62; 3.95 µM (inactive) in the test with SF-539. Also, in the test with SK-OV-3, the GI50 is 2.48 µM (inactive).
`Nn1c(=O)n(Cc2ccccc2)n(-c2ccccc2)c1=O`: the GI50 in the test with U-251, in the test on HOP-92, with SW-620, in the test with SNB-19, with OVCAR-3 and with Malme-3M was > 100 µM (inactive) in each case. For the same compound, the GI50 is > 100 µM (inactive) with CAKI-1; > 100 µM (inactive) with CCRF-CEM; > 100 µM (inactive) in the test on NCI-H522; 74.1 µM (inactive) in the test on SNB-75; > 100 µM (inactive) in the test with LOX IMVI; > 100 µM (inactive) with HOP-62. The GI50 in the test with LXFL 529, in the test on SF-539 and in the test with SK-OV-3 was > 100 µM (inactive) in each case.
In the case of `CC1=CC=CC(C)(C)CC1(O[Si](C)(C)C)C(F)(F)F` (centres undefined), the GI50 with U-251 was 98.9 µM (inactive); with HOP-92, > 100 µM (inactive); in the test on SW-620, > 100 µM (inactive); in the test with SNB-19, > 100 µM (inactive); in the test with OVCAR-3, > 100 µM (inactive); in the test on MDA-MB-231 it was > 100 µM (inactive). Moreover, the GI50 in the test on Malme-3M was > 100 µM (inactive); with CAKI-1 it was > 100 µM (inactive); in the test with HCT-15 it was over 100 µM; with DU-145 it was > 100 µM (inactive); in the test on CCRF-CEM, > 100 µM (inactive); in the test with NCI-H522, 43.3 µM (inactive). Besides, the GI50 in the test with SNB-75, with LOX IMVI, in the test with HOP-62, in the test with SF-539, with NCI/ADR-RES and with SK-OV-3 was > 100 µM (inactive) in each case.
As for `CC(=O)c1ccc(NC(=O)/C(CC(=O)c2sc(-c3cccnc3)nc2C)=N/NC(N)=O)cc1`, the GI50 is 68.1 µM (inactive) in the test on U-251; > 100 µM (inactive) in the test on SW-620; 53.6 µM (inactive) in the test on SNB-19; > 100 µM (inactive) in the test on OVCAR-3; > 100 µM (inactive) in the test on Malme-3M; 23.2 µM (inactive) with CAKI-1. In addition, the GI50 in the test on HCT-15 was 42.3 µM; in the test with CCRF-CEM, 21.6 µM (inactive); in the test with NCI-H522, 98.4 µM (inactive); with DMS-114, > 100 µM (inactive); in the test on LOX IMVI, > 100 µM (inactive); in the test with HOP-62 it was > 10 µM (inactive). For the same compound, the GI50 in the test with LXFL 529 is 41.4 µM (inactive); with SF-539, > 10 µM (inactive); with SK-OV-3 it was > 100 µM (inactive).
For `CN(C)CCNC(=O)c1ccc(Cl)c2c(Nc3ccc(S(=O)(=O)N=C(N)N)cc3)c3ccccc3nc12`, the GI50 in the test with U-251 is 3.29 µM (inactive); in the test on SW-620, 1.73 µM (inactive); with SNB-19, 1.85 µM (inactive); in the test with OVCAR-3, 12.4 µM (inactive); in the test on HCT-15 it was 5.02 µM; with CCRF-CEM, 1.69 µM (inactive). The GI50 in the test with NCI-H522 is 0.603 µM (active); in the test with SNB-75, > 10 µM (inactive); with DMS-114 it was 0.993 µM (active); with LOX IMVI it was 1.75 µM (inactive); in the test with HOP-62, 10.1 µM (inactive); with LXFL 529, 3.94 µM (inactive). The GI50 with SF-539 is 3.81 µM (inactive).
Take `COc1cc(/C=N\O)nc(-c2ccccn2)c1`: the GI50 is 0.553 µM (active) with U-251; 1.44 µM (inactive) in the test with HOP-92; 0.664 µM (active) in the test on SW-620; 1.11 µM (active) with SNB-19; 0.222 µM (active) in the test on OVCAR-3; 1.05 µM (active) in the test with MDA-MB-231. Besides, the GI50 is 0.741 µM (active) in the test with Malme-3M; 0.303 µM (active) in the test on CAKI-1; 0.092 µM with HCT-15; 0.236 µM (active) with DU-145; 0.175 µM (active) in the test with CCRF-CEM; 0.129 µM (active) in the test on NCI-H522. The GI50 with SNB-75 was 1.28 µM (inactive); in the test with LOX IMVI, 0.221 µM (active); in the test on HOP-62 it was 0.137 µM (active); in the test on SF-539, 0.575 µM (active); with NCI/ADR-RES, 0.36 µM (active); with SK-OV-3, 0.45 µM (active).
For `C1=C2/CC[C@H](Sc3ccccc3)[C@H]2C2(CCCCC/1)OCCO2`, the GI50 in the test with U-251 was 21.8 µM (inactive); in the test with HOP-92 it was 18.6 µM (inactive); in the test with SW-620, 29 µM (inactive); with SNB-19, 36.9 µM (inactive); with OVCAR-3, 27.7 µM (inactive); in the test on Malme-3M, 28.5 µM (inactive). For the same compound, the GI50 in the test on CAKI-1 was 20.2 µM (inactive); in the test on HCT-15, 28.2 µM; in the test with CCRF-CEM, 24.5 µM (inactive); with NCI-H522 it was 17.9 µM (inactive); in the test with SNB-75 it was 27.9 µM (inactive); with LOX IMVI, 18.7 µM (inactive). For the same compound, the GI50 in the test on HOP-62 was 40.4 µM (inactive); with LXFL 529, 46.7 µM (inactive); in the test on SF-539, 40.4 µM (inactive); in the test with SK-OV-3, 31 µM (inactive).
With `CN1C(=O)CCC2[C@@H]3CC=C4C[C@@H](O)CC[C@]4(C)C3CC[C@@]21C` (some centres undefined), the GI50 was > 100 µM (inactive) with U-251; > 100 µM (inactive) with SW-620; 49.5 µM (inactive) in the test on OVCAR-3; 82.4 µM (inactive) in the test on Malme-3M; 50.2 µM (inactive) in the test with CAKI-1; 71.6 µM in the test on HCT-15. Also, the GI50 in the test with CCRF-CEM is 36.1 µM (inactive); with SNB-75 it was > 100 µM (inactive); in the test with DMS-114, 16.4 µM (inactive); with HOP-62, 45.9 µM (inactive); with LXFL 529 it was 29.1 µM (inactive); with SF-539 it was 45.9 µM (inactive). Moreover, in the test with SK-OV-3, the GI50 is > 100 µM (inactive).
`O=c1c2c([nH]c3cc4c(cc13)OCO4)-c1ccccc1C2`: the GI50 with U-251 is 17.2 µM (inactive); with HOP-92, 18.3 µM (inactive); with SW-620, 35.2 µM (inactive); in the test with SNB-19, 37.1 µM (inactive); with OVCAR-3, 22.5 µM (inactive); in the test on Malme-3M, 23.2 µM (inactive). Moreover, the GI50 was 39 µM (inactive) with CAKI-1; 19.3 µM in the test with HCT-15; 17.7 µM (inactive) with CCRF-CEM; 22.4 µM (inactive) with NCI-H522; 15.6 µM (inactive) with LOX IMVI; 23.4 µM (inactive) in the test on HOP-62. Moreover, the GI50 in the test with LXFL 529 was 22.7 µM (inactive); in the test on SF-539 it was 18.1 µM (inactive); with SK-OV-3 it was 31.3 µM (inactive).
Regarding `O=C1c2cccc3cccc(c23)C(=O)N1CCN(CCO)CCO`, the GI50 in the test on U-251 is 32.4 µM (inactive); in the test with HOP-92 it was 26.7 µM (inactive); with SW-620, 19.1 µM (inactive); in the test on SNB-19, 38.3 µM (inactive); with OVCAR-3, 33.8 µM (inactive); in the test with Malme-3M, 21.2 µM (inactive). The GI50 with HCT-15 is 22.8 µM; in the test on CCRF-CEM it was 30.3 µM (inactive); with SNB-75 it was 30.1 µM (inactive); in the test with LOX IMVI, 18 µM (inactive); in the test on HOP-62, 31.7 µM (inactive); with LXFL 529, 32.3 µM (inactive). The GI50 with SF-539 is 23.5 µM (inactive); with SK-OV-3, 55.1 µM (inactive).
As to `CCOC(=O)/C=C\C(C#N)(C#N)/N=C/c1ccsc1`, the GI50 in the test with U-251 was 17.1 µM (inactive); in the test with HOP-92, 2.05 µM (inactive); with SW-620, 1.62 µM (inactive); in the test on SNB-19, 23.1 µM (inactive); in the test on OVCAR-3, 2.54 µM (inactive); in the test with MDA-MB-231, 16.3 µM (inactive). Further, the GI50 with Malme-3M is 2.29 µM (inactive); in the test on CAKI-1 it was 2.25 µM (inactive); in the test with HCT-15, 2.96 µM; in the test on DU-145, 16.5 µM (inactive); with CCRF-CEM, 0.207 µM (active); in the test with NCI-H522 it was 0.9 µM (active). For the same compound, the GI50 with SNB-75 was 13 µM (inactive); with LOX IMVI, 4.06 µM (inactive); in the test on HOP-62 it was 19.4 µM (inactive); in the test on SF-539, 6.55 µM (inactive); in the test with NCI/ADR-RES, 3.84 µM (inactive); in the test with SK-OV-3, 20.8 µM (inactive).
